Laboratory results taken from ChEMBL document CHEMBL1157248, “Polar steroidal compounds from the far eastern starfish Henricia leviuscula” (J Nat Prod, 2006).

What was measured:
Format in all cases: cell-based, Erythrocyte
[1] = Toxicity in mouse erythrocytes assessed as hemolysis at 0.08 mM during 5 mins; conditions: read-out: Activity
[2] = Toxicity in mouse erythrocytes assessed as hemolysis
[3] = Toxicity in mouse erythrocytes assessed as hemolysis at 0.1 mM during 5 mins

Q: With `CO[C@@H]1[C@@H](OC)[C@H](O[C@@H]2C=C3[C@H](O)C[C@@]4(O)[C@@H]5[C@@H](O)[C@H](O)[C@H]([C@H](C)/C=C/C(C)CCO)[C@@]5(C)CC[C@@H]4[C@@]3(C)CC2)OC[C@H]1O` (some centres undefined) as the molecule, how does the hemolysis at 5 min, 80 µM [1] read?
A: Its hemolysis at 5 min, 80 µM is 100%.

Q: What about the HC50 [2] of the same molecule?
A: The HC50 was 80 µM.

Q: Which results are given for `CC(C)[C@@H](O)CC[C@@H](C)[C@H]1C[C@@H](O)[C@@H]2[C@]1(C)CC[C@@H]1[C@@]3(C)CC[C@H](O)[C@H](O)[C@@H]3[C@H](O)C[C@]12O`?
A: hemolysis at 5 min, 100 µM ([3]; mouse erythrocytes, read-out: Activity): 100%; HC50 [2]: 53 µM

Q: With `C[C@H](CC[C@@H](O)C(C)(C)O)[C@H]1C[C@@H](O)[C@@H]2[C@]1(C)CC[C@@H]1[C@@]3(C)CC[C@H](O)[C@H](O)[C@@H]3[C@H](O)C[C@]12O` as the molecule, how does the Activity ([3]; erythrocyte, 5 min, 100 µM) read?
A: Its Activity is “Not Active”.

Q: And the HC50 [2]?
A: The HC50 was 210 µM.

Q: What does the source list for `CO[C@@H]1[C@@H](OC)[C@H](O[C@@H]2C=C3[C@H](O)C[C@@]4(O)[C@@H]5[C@@H](O)[C@H](O)[C@H]([C@H](C)/C=C/[C@@H](C)[C@H](C)CO)[C@@]5(C)CC[C@@H]4[C@@]3(C)CC2)OC[C@H]1O` [HENRICIOSIDE H2]?
A: hemolysis at 5 min, 80 µM [1]: 70%; HC50 [2]: 120 µM

Q: For `CO[C@H]1[C@H](O[C@H]2CC[C@@]3(C)[C@H]([C@H]2O)[C@H](O)C[C@]2(O)[C@@H]3CC[C@]3(C)[C@@H]([C@H](C)CC[C@H](O[C@@H]4O[C@@H](CO)[C@H](O)[C@H]4O)C(C)C)C[C@H](O)[C@H]32)OC[C@@H](OC)[C@@H]1O` [LAEVIUSCOLOSIDE G], which HC50 [2] is on record?
A: Its HC50 is 130 µM.
